22 compounds from patent US20060276464A1, “Diarylsulfone sulfonamides and use thereof” (Wyeth, priority 2005, published 2006) can be followed below.

In data set [1] the target is T1, SFRP-1 (Homo sapiens, UniProt Q8N474).
T1 sequence (Q8N474 32-314): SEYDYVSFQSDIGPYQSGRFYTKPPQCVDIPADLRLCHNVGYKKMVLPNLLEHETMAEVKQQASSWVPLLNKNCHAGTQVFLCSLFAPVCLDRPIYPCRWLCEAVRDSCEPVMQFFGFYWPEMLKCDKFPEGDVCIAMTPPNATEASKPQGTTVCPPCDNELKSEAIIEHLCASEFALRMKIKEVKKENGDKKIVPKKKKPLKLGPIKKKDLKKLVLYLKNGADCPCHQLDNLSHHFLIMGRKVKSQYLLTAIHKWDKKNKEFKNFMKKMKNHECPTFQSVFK
Kind of data set: Fluorescence polarization binding assay (competitive displacement of a probe compound from SFRP-1).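 Also: test compound competes with a fluorescent probe held by SFRP-1, seen as a drop in probe anisotropy after incubation in darkness, with anisotropy as function of rising compound dose.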 To be noted: fluorescence anisotropy, 45 nM SFRP-1, 20 nM probe. On the technique in general: Polarisation of emitted light reports the rotation of a fluorescent probe.

In data set [2] the target is T1, SFRP-1. The data set is described as follows: Cell-based assay for in vitro measurement of SFRP-1/SARP2 antagonist activity (U2OS cells co-transfected with 16x TCF-tk-Luciferase reporter, Wnt and hSFRP-1).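 As to all read-outs here: U2OS cells co-transfected with a TCF-tk luciferase reporter, a Wnt vector, hSFRP-1 or empty vector and CMV-βgal, luciferase luminescence read in cell lysates alongside βgal activity.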 To be noted: for fold induction at 10 µM / fold induction at 15 µM: U2OS; for fold induction at 10 µM: read-out: Fold Induction with SFRP-1, U2OS cells, single dose 10 μM, luciferase reporter, fold induction over SFRP-1 control. (In general: In a reporter assay the amount or activity of a reporter protein is the signal.)

Where [3] appears, read: read-out: Fold Induction with SFRP-1, Conc 15 μM, single dose, luciferase reporter, fold induction over SFRP-1 control, cells with SFRP-1.
Setting [4] is: read-out: Fold Induction without SFRP-1, Conc 15 μM, single dose, luciferase reporter, cells without SFRP-1 (specificity control).

“And” between values parts separate entries of the source, which are not always exact repeats. Equal entries are not always repeated. Where two headings read alike, the source gives them in different places.

`CC(C)c1ccc(S(=O)(=O)c2ccccc2)cc1S(=O)(=O)NC1C[C@H]2CC[C@@H](C1)N2C.Cl` (relative stereo) [Example 860, 2-Isopropyl-N-[(1R*,5S*)-8-methyl-8-azabicyclo[3.2.1]oct-3-yl]-5-(phenylsulfonyl)benzenesulfonamide monohydrochloride] gave a melting point of 90 °C. At SFRP-1 [1], this compound came in with an IC50 of 800 nM. Also, the fold induction at 10 µM on SFRP-1 [2] was determined as 4.1.

Compound `CN1[C@@H]2CC[C@H]1CC(NS(=O)(=O)c1cc(S(=O)(=O)c3ccccc3)ccc1C(F)(F)F)C2` (relative stereo) [Example 1035, N-[(1R*, 5S*)-8-Methyl-8-azabicyclo[3.2.1]oct-3-yl]-5-(phenylsulphonyl)-2-(trifluoromethyl)benzenesulfonamide] came in with a melting point of 154 to 157 °C. Also, the IC50 on SFRP-1 [1] was determined as 300 nM. The response at SFRP-1 [2] was half-maximal at 1350 nM (EC50).

Turning to `Cc1ccc(S(=O)(=O)c2cc3c(c(S(=O)(=O)NCCc4ccccc4F)c2)CCCC3)cc1` [Example 441, N-[2-(2-Fluorophenyl)ethyl]-3-[(4-methylphenyl)sulfonyl]-5,6,7,8-tetrahydronaphthalene-1-sulfonamide], the melting point fell in the range of 55 to 60 °C. This compound returned an IC50 on SFRP-1 [1] of 6000 nM. Further, at SFRP-1 [2] (read-out: Fold Induction with SFRP-1, Conc 15 μM, with SFRP-1, fold induction over SFRP-1 control, single dose), the fold induction at 15 µM came out at 1.8. Moreover, the fold induction at 15 µM on SFRP-1 [2] (read-out: Fold Induction without SFRP-1, Conc 15 μM, without SFRP-1, single dose) came out at 1.1.

`CCCc1ccc(S(=O)(=O)c2ccccc2)cc1S(=O)(=O)NC1CCOCC1` [Example 551, 5-(Phenylsulfonyl)-2-propyl-N-(tetrahydro-2H-pyran-4-yl)benzenesulfonamide] showed a melting point of 131 to 133 °C. This compound gave an IC50 at SFRP-1 [1] of 1000 nM. Further, on SFRP-1 [2] (setting [3]), the fold induction at 15 µM came out at 3.1. In addition, the fold induction at 15 µM at SFRP-1 [2] (setting [4]) was 1.1.

As for `CCCc1ccc(S(=O)(=O)c2ccccc2)cc1S(=O)(=O)NCCc1ccccn1` [Example 555, 5-(Phenylsulfonyl)-2-propyl-N-(2-pyridin-2-ylethyl)benzenesulfonamide], the melting point lay within 100 to 102 °C. The half-inhibitory concentration (IC50) on SFRP-1 [1] is 700 nM and 1100 nM. Moreover, the fold induction at 15 µM at SFRP-1 [2] (setting [3]) is 3.1. The fold induction at 15 µM on SFRP-1 [2] (setting [4]) is 1.2.

For the compound `CCCc1ccc(S(=O)(=O)c2ccccc2)cc1S(=O)(=O)NCCCn1ccnc1` [Example 556, N-[3-(1H-Imidazol-1-yl)propyl]-5-(phenylsulfonyl)-2-propylbenzenesulfonamide], the melting point lay within 143 to 146 °C. On SFRP-1 [1], this compound displayed an IC50 of 300 nM. Besides, on SFRP-1 [2] (setting [3]), the fold induction at 15 µM amounted to 4. Moreover, the fold induction at 15 µM at SFRP-1 [2] (setting [4]) is 1.2.

`CCCc1ccc(S(=O)(=O)c2ccccc2)cc1S(=O)(=O)NC1CCN(C(=O)OC(C)(C)C)CC1` [Example 558, tert-Butyl 4-({[5-(phenylsulfonyl)-2-propylphenyl]sulfonyl}amino)piperidine-1-carboxylate] returned a melting point of 128 to 130 °C. Besides, the IC50 at SFRP-1 [1] worked out at 700 nM. Moreover, at SFRP-1 [2] (setting [3]), the fold induction at 15 µM came out at 1.8. In addition, the fold induction at 15 µM at SFRP-1 [2] (setting [4]) was 1.1.

With `CCCc1ccc(S(=O)(=O)c2ccc(F)cc2)cc1S(=O)(=O)NC1CCOCC1` [Example 560, 5-[(4-Fluorophenyl)sulfonyl]-2-propyl-N-(tetrahydro-2H-pyran-4-yl)benzenesulfonamide], the melting point lay within 131 to 133 °C. Besides, the IC50 at SFRP-1 [1] is 1700 nM and 2700 nM. At SFRP-1 [2] (setting [3]), the fold induction at 15 µM is 1.6. Moreover, the fold induction at 15 µM at SFRP-1 [2] (setting [4]) turned out to be 0.9.

In turn, `CCCc1ccc(S(=O)(=O)c2ccc(F)cc2)cc1S(=O)(=O)NCCc1ccccn1` [Example 564, 5-[(4-Fluorophenyl)sulfonyl]-2-propyl-N-(2-pyridin-2-ylethyl)benzenesulfonamide] showed a melting point of 113 to 115 °C. Moreover, on SFRP-1 [1], the IC50 was 1400 nM and 1600 nM. The fold induction at 15 µM at SFRP-1 [2] (setting [3]) came out at 3.3. Besides, the fold induction at 15 µM at SFRP-1 [2] (setting [4]) worked out at 1.3.

`CCCc1ccc(S(=O)(=O)c2ccc(F)cc2)cc1S(=O)(=O)NC1CCN(C(=O)OC(C)(C)C)CC1` [Example 567, tert-Butyl 4-[({5-[(4-fluorophenyl)sulfonyl]-2-propylphenyl}sulfonyl)amino]piperidine-1-carboxylate] had a melting point of 151 to 153 °C. Besides, the IC50 on SFRP-1 [1] worked out at 1600 nM. For the same compound, the fold induction at 15 µM at SFRP-1 [2] (setting [3]) came out at 2.2. The fold induction at 15 µM on SFRP-1 [2] (setting [4]) was 1.3.

`O=S(=O)(NCCc1ccccc1)c1cc(S(=O)(=O)c2ccccc2)ccc1C(F)(F)F` [Example 570, N-(2-Phenylethyl)-5-(phenylsulfonyl)-2-(trifluoromethyl)-benzenesulfonamide] came in with a melting point of 151 to 153 °C. At SFRP-1 [1], the concentration for half-maximal inhibition (IC50) was found to be 160 nM. The fold induction at 15 µM on SFRP-1 [2] (setting [3]) was determined as 2.4. Further, at SFRP-1 [2] (setting [4]), the fold induction at 15 µM is 1.2.

As for `O=S(=O)(NCCc1ccccn1)c1cc(S(=O)(=O)c2ccccc2)ccc1C(F)(F)F` [Example 571, 5-(Phenylsulfonyl)-N-(2-pyridin-2-ylethyl)-2-(trifluoromethyl)benzenesulfonamide], the melting point is 149 to 151 °C. At SFRP-1 [1], the IC50 was 130 nM and 300 nM. At SFRP-1 [2] (setting [3]), the fold induction at 15 µM was 3.1. Further, the fold induction at 15 µM at SFRP-1 [2] (setting [4]) was 1.2.

Compound `O=S(=O)(NC1CCOCC1)c1cc(S(=O)(=O)c2ccccc2)ccc1C(F)(F)F` [Example 608, 5-(phenylsulfonyl)-N-(tetrahydro-2H-pyran-4-yl)-2-(trifluoromethyl)benzenesulfonamide] showed a melting point of 155 to 158 °C. In addition, the IC50 at SFRP-1 [1] was 300 nM and 500 nM. In addition, the fold induction at 15 µM at SFRP-1 [2] (setting [3]) worked out at 3.8. Moreover, the fold induction at 15 µM on SFRP-1 [2] (setting [4]) is 1.1.

For the compound `CC(C)c1cc(C(C)C)c(S(=O)(=O)c2ccccc2)cc1S(=O)(=O)NCCc1ccccc1` [Example 609, 2,4-Diisopropyl-N-(2-phenylethyl)-5-(phenylsulfonyl)benzenesulfonamide], the melting point lay within 156 to 158 °C. In addition, the half-inhibitory concentration (IC50) at SFRP-1 [1] was 2100 nM. In addition, at SFRP-1 [2] (setting [3]), the fold induction at 15 µM stood at 1.4. Besides, the fold induction at 15 µM on SFRP-1 [2] (setting [4]) is 1.1.

In turn, `CC(C)c1cc(C(C)C)c(S(=O)(=O)c2ccccc2)cc1S(=O)(=O)NC1CCOCC1` [Example 610, 2,4-Diisopropyl-5-(phenylsulfonyl)-N-(tetrahydro-2H-pyran-4-yl)benzenesulfonamide] yielded a melting point of 159 to 160 °C. This compound had an IC50 on SFRP-1 [1] of 900 nM. Also, at SFRP-1 [2] (setting [3]), the fold induction at 15 µM is 2.5. Besides, the fold induction at 15 µM on SFRP-1 [2] (setting [4]) came to 1.1.

In the case of `CC(C)c1cc(C(C)C)c(S(=O)(=O)c2ccccc2)cc1S(=O)(=O)NCC1CCOCC1` [Example 611, 2,4-Diisopropyl-5-(phenylsulfonyl)-N-(tetrahydro-2H-pyran-4-ylmethyl)benzenesulfonamide], the melting point is 148 to 150 °C. At SFRP-1 [1], this compound displayed an IC50 of 1300 nM. Also, the fold induction at 15 µM on SFRP-1 [2] (setting [3]) was 2.6. For the same compound, the fold induction at 15 µM at SFRP-1 [2] (setting [4]) came out at 1.1.

Consider `CC(C)c1cc(C(C)C)c(S(=O)(=O)c2ccccc2)cc1S(=O)(=O)NCCC1CCOCC1` [Example 612, 2,4-Diisopropyl-5-(phenylsulfonyl)-N-[2-(tetrahydro-2H-pyran-4-yl)ethyl]benzenesulfonamide], for which the melting point was 90 to 92 °C. This compound also registered an IC50 on SFRP-1 [1] of 1600 nM. Besides, the fold induction at 15 µM at SFRP-1 [2] (setting [3]) came out at 2. The fold induction at 15 µM at SFRP-1 [2] (setting [4]) was 1.1.

`CC(C)c1cc(C(C)C)c(S(=O)(=O)c2ccccc2)cc1S(=O)(=O)NC1CCCC1` [Example 613, N-Cyclopentyl-2,4-diisopropyl-5-(phenylsulfonyl)benzenesulfonamide] registered a melting point of 179 to 181 °C. Further, at SFRP-1 [1], the concentration for half-maximal inhibition (IC50) is 2500 nM and 3000 nM. Also, the fold induction at 15 µM on SFRP-1 [2] (setting [3]) amounted to 1.3. Besides, at SFRP-1 [2] (setting [4]), the fold induction at 15 µM is 1.

In turn, `CC(C)c1cc(C(C)C)c(S(=O)(=O)c2ccccc2)cc1S(=O)(=O)NCCc1ccccn1` [Example 614, 2,4-Diisopropyl-5-(phenylsulfonyl)-N-(2-pyridin-2-ylethyl)benzenesulfonamide] returned a melting point of 189 to 191 °C. The IC50 at SFRP-1 [1] was 1300 nM. The fold induction at 15 µM on SFRP-1 [2] (setting [3]) is 1.8. In addition, the fold induction at 15 µM at SFRP-1 [2] (setting [4]) is 1.

Consider `CC(C)c1cc(C(C)C)c(S(=O)(=O)c2ccccc2)cc1S(=O)(=O)NCCCn1ccnc1` [Example 615, N-[3-(1H-Imidazol-1-yl)propyl]-2,4-diisopropyl-5-(phenylsulfonyl)benzenesulfonamide], for which the melting point was 203 to 205 °C. In addition, the IC50 on SFRP-1 [1] turned out to be 1200 nM. Moreover, the fold induction at 15 µM at SFRP-1 [2] (setting [3]) was determined as 1.7. Further, the fold induction at 15 µM on SFRP-1 [2] (setting [4]) was 1.

`CC(C)c1cc(C(C)C)c(S(=O)(=O)c2ccccc2)cc1S(=O)(=O)NCCc1cccnc1` [Example 616, 2,4-Diisopropyl-5-(phenylsulfonyl)-N-(2-pyridin-3-ylethyl)benzenesulfonamide] returned a melting point of 163 to 165 °C. The compound also had an IC50 at SFRP-1 [1] of 800 nM. For the same compound, the fold induction at 15 µM at SFRP-1 [2] (setting [3]) was 2.7. On SFRP-1 [2] (setting [4]), the fold induction at 15 µM came out at 1.

The compound `COc1ccc(S(=O)(=O)c2ccccc2)cc1S(=O)(=O)NC1CCOCC1` [Example 689, 2-Methoxy-5-(phenylsulfonyl)-N-(tetrahydro-2H-pyran-4-yl)benzenesulfonamide] came in with a melting point of 176 to 178 °C. For the same compound, at SFRP-1 [2], the fold induction at 10 µM was found to be 1.2.

Usually melting point stands for the temperature, or range, at which the solid turns liquid. The term IC50 denotes the concentration that gives 50% inhibition. A high value points to weaker potency. Usually EC50 stands for the midpoint of the concentration-response curve.
